Each compound was assayed against T1, Recombinant (1-346) HPK1 (h) (Homo sapiens, UniProt Q92918) (assay: HPK1 human STE kinase enzymatic radiometric assay). Details: read-out: HPK1 IC50 nM Range.
T1 construct: Recombinant (1-346) HPK1 (h) is incubated with 8 mM MOPS pH 7.0
T1 sequence (Q92918 1-346): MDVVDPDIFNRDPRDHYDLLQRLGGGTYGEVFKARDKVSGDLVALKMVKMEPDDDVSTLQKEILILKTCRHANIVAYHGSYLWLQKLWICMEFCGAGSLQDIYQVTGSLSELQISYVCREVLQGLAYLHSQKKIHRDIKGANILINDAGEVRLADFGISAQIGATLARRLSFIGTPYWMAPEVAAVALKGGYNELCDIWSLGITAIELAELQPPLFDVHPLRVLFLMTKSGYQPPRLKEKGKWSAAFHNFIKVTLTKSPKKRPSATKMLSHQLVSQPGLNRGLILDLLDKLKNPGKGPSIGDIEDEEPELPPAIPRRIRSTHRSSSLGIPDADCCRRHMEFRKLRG
Format: biochemical
How it was run: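 Recombinant HPK1 (1-346) incubated 40 min at RT with 0.33 mg/mL myelin basic protein and [gamma-33P]-ATP in 8 mM MOPS pH 7.0, 0.2 mM EDTA, 10 mM Mg acetate; reaction started with Mg/ATP. Stopped with 0.5% phosphoric acid, spotted on P30 filtermat, washed, scintillation counted. Compounds tested as 9-point 3-fold dilutions.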

| IC50 [nM] | SMILES |
| --- | --- |
| 11 to 100 | Cc1c[nH]c(=O)c2ccc(-c3nc(-c4ccc(F)c(CN(C)C)c4)c(F)nc3N)cc12 [Example I-275, 6-(3-amino-6-(3-((dimethylamino)methyl)-4-fluorophenyl)-5-fluoropyrazin-2-yl)-4-methylisoquinolin-1(2H)-one] |
| 11 to 100 | CN(C)Cc1cc(-c2nc(-c3ccc4c(=O)[nH]cc(F)c4c3)c(N)nc2F)ccc1F [Example I-276, 6-(3-amino-6-(3-((dimethylamino)methyl)-4-fluorophenyl)-5-fluoropyrazin-2-yl)-4-fluoroisoquinolin-1(2H)-one] |
| 11 to 100 | CN(C)Cc1cccc(-c2nc(-c3ccc4c(c3)CCNC4=O)c(N)nc2F)c1 [Example I-277, 6-(3-amino-6-(3-((dimethylamino)methyl)phenyl)-5-fluoropyrazin-2-yl)-3,4-dihydroisoquinolin-1(2H)-one] |
| 11 to 100 | CN(C)Cc1cccc(-c2nc(-c3cc4c(cc3F)C(=O)NCC4)c(N)nc2F)c1 [Example I-278, 6-(3-amino-6-(3-((dimethylamino)methyl)phenyl)-5-fluoropyrazin-2-yl)-7-fluoro-3,4-dihydroisoquinolin-1(2H)-one] |
| 11 to 100 | CN(C)Cc1cccc(-c2nc(-c3cc(F)c4c(c3)CCNC4=O)c(N)nc2F)c1 [Example I-279, 6-(3-amino-6-(3-((dimethylamino)methyl)phenyl)-5-fluoropyrazin-2-yl)-8-fluoro-3,4-dihydroisoquinolin-1(2H)-one] |
| 11 to 100 | Cc1c[nH]c(=O)c2ccc(-c3nc(-c4cccc(CN(C)C)c4)c(F)nc3N)cc12 [Example I-280, 6-(3-amino-6-(3-((dimethylamino)methyl)phenyl)-5-fluoropyrazin-2-yl)-4-methylisoquinolin-1(2H)-one] |
| 11 to 100 | CN(C)Cc1cccc(-c2nc(-c3ccc4c(=O)[nH]cc(F)c4c3)c(N)nc2F)c1 [Example I-281, 6-(3-amino-6-(3-((dimethylamino)methyl)phenyl)-5-fluoropyrazin-2-yl)-4-fluoroisoquinolin-1(2H)-one] |
| 11 to 100 | CCN(C)Cc1cc(-c2nc(-c3ccc4c(=O)[nH]cc(F)c4c3)c(N)nc2F)ccc1C1=CCOCC1 [Example I-282, 6-(3-amino-6-(4-(3,6-dihydro-2H-pyran-4-yl)-3-((ethyl(methyl)amino)methyl)phenyl)-5-fluoropyrazin-2-yl)-4-fluoroisoquinolin-1(2H)-one] |
| 11 to 100 | CN(C)[C@@H]1COc2ccc(-c3nc(-c4ccc5c(=O)[nH]ccc5c4)c(N)nc3F)cc21 [Example I-283, (S)-6-(3-amino-6-(3-(dimethylamino)-2,3-dihydrobenzofuran-5-yl)-5-fluoropyrazin-2-yl)isoquinolin-1(2H)-one] |
| 11 to 100 | Cc1c[nH]c(=O)c2ccc(-c3nc(-c4ccc5c(c4)[C@H](N(C)C)CO5)c(F)nc3N)cc12 [Example I-284, (S)-6-(3-amino-6-(3-(dimethylamino)-2,3-dihydrobenzofuran-5-yl)-5-fluoropyrazin-2-yl)-4-methylisoquinolin-1(2H)-one] |
| 0.1 to 10 | Cc1c[nH]c(=O)c2ccc(-c3nc(-c4ccc5c(c4)[C@H](N(C)C)CCO5)c(F)nc3N)cc12 [Example I-285, (R)-6-(3-amino-6-(4-(dimethylamino)chroman-6-yl)-5-fluoropyrazin-2-yl)-4-methylisoquinolin-1(2H)-one] |
| 11 to 100 | CN(C)[C@@H]1CCOc2ccc(-c3nc(-c4ccc5c(=O)[nH]ccc5c4)c(N)nc3F)cc21 [Example I-286, (R)-6-(3-amino-6-(4-(dimethylamino)chroman-6-yl)-5-fluoropyrazin-2-yl)isoquinolin-1(2H)-one] |
| 0.1 to 10 | CN(C)[C@@H]1CCOc2ccc(-c3nc(-c4ccc5c(c4)CCNC5=O)c(N)nc3F)cc21 [Example I-287, (R)-6-(3-amino-6-(4-(dimethylamino)chroman-6-yl)-5-fluoropyrazin-2-yl)-3,4-dihydroisoquinolin-1(2H)-one] |
| 11 to 100 | CN(C)[C@@H]1CCOc2ccc(-c3nc(-c4cc5c(cc4F)C(=O)NCC5)c(N)nc3F)cc21 [Example I-288, (R)-6-(3-amino-6-(4-(dimethylamino)chroman-6-yl)-5-fluoropyrazin-2-yl)-7-fluoro-3,4-dihydroisoquinolin-1(2H)-one] |
| 11 to 100 | CN(C)[C@@H]1CCOc2ccc(-c3nc(-c4cc(F)c5c(c4)CCNC5=O)c(N)nc3F)cc21 [Example I-289, (R)-6-(3-amino-6-(4-(dimethylamino)chroman-6-yl)-5-fluoropyrazin-2-yl)-8-fluoro-3,4-dihydroisoquinolin-1(2H)-one] |
| 0.1 to 10 | COc1ccc(-c2nc(-c3ccc4c(c3)CCNC4=O)c(N)nc2F)cc1C(C)N(C)C (stereo not drawn) [Example I-290, 6-(3-amino-6-(3-(1-(dimethylamino)ethyl)-4-methoxyphenyl)-5-fluoropyrazin-2-yl)-3,4-dihydroisoquinolin-1(2H)-one] |
| 0.1 to 10 | COc1ccc(-c2nc(-c3ccc4c(=O)[nH]cc(F)c4c3)c(N)nc2F)cc1C(C)N(C)C (stereo not drawn) [Example I-291, 6-(3-amino-6-(3-(1-(dimethylamino)ethyl)-4-methoxyphenyl)-5-fluoropyrazin-2-yl)-4-fluoroisoquinolin-1(2H)-one] |
| 11 to 100 | COc1ccc(-c2nc(-c3ccc4c(c3)CCNC4=O)c(N)nc2F)cc1C#N [Example I-292, 5-(5-amino-3-fluoro-6-(1-oxo-1,2,3,4-tetrahydroisoquinolin-6-yl)pyrazin-2-yl)-2-methoxybenzonitrile] |
| 0.1 to 10 | Cc1cc(-c2nc(-c3ccc4c(c3)CCNC4=O)c(N)nc2F)cc2c1CCN(C)C2 [Example I-294, 6-(3-amino-6-(2,5-dimethyl-1,2,3,4-tetrahydroisoquinolin-7-yl)-5-fluoropyrazin-2-yl)-3,4-dihydroisoquinolin-1(2H)-one] |
| 11 to 100 | Cc1cc(-c2nc(-c3ccc4c(=O)[nH]cc(C)c4c3)c(N)nc2F)cc2c1CCN(C)C2 [Example I-295, 6-(3-amino-6-(2,5-dimethyl-1,2,3,4-tetrahydroisoquinolin-7-yl)-5-fluoropyrazin-2-yl)-4-methylisoquinolin-1(2H)-one] |
| 0.1 to 10 | Cc1cc(-c2nc(-c3ccc4c(=O)[nH]cc(F)c4c3)c(N)nc2F)cc2c1CCN(C)C2 [Example I-296, 6-(3-amino-6-(2,5-dimethyl-1,2,3,4-tetrahydroisoquinolin-7-yl)-5-fluoropyrazin-2-yl)-4-fluoroisoquinolin-1(2H)-one] |
| 11 to 100 | CCN(C)Cc1cc(-c2nc(-c3ccc4c(c3)CCNC4=O)c(N)nc2F)cc(C)c1OC [Example I-297, 6-(3-amino-6-(3-((ethyl(methyl)amino)methyl)-4-methoxy-5-methylphenyl)-5-fluoropyrazin-2-yl)-3,4-dihydroisoquinolin-1(2H)-one] |
| 11 to 100 | CCN(C)Cc1cc(-c2nc(-c3ccc4c(=O)[nH]cc(F)c4c3)c(N)nc2F)cc(C)c1OC [Example I-298, 6-(3-amino-6-(3-((ethyl(methyl)amino)methyl)-4-methoxy-5-methylphenyl)-5-fluoropyrazin-2-yl)-4-fluoroisoquinolin-1(2H)-one] |
| 11 to 100 | CCN(C)Cc1cc(-c2nc(-c3ccc4c(=O)[nH]cc(C)c4c3)c(N)nc2F)cc(C)c1OC [Example I-299, 6-(3-amino-6-(3-((ethyl(methyl)amino)methyl)-4-methoxy-5-methylphenyl)-5-fluoropyrazin-2-yl)-4-methylisoquinolin-1(2H)-one] |
| 11 to 100 | CCN(C)Cc1cc(-c2nc(-c3ccc4c(=O)[nH]cc(F)c4c3)c(N)nc2F)ccc1OC [Example I-300, 6-(3-amino-6-(3-((ethyl(methyl)amino)methyl)-4-methoxyphenyl)-5-fluoropyrazin-2-yl)-4-fluoroisoquinolin-1(2H)-one] |
| 11 to 100 | CCN(C)Cc1cc(-c2nc(-c3ccc4c(=O)[nH]cc(C)c4c3)c(N)nc2F)ccc1OC [Example I-301, 6-(3-amino-6-(3-((ethyl(methyl)amino)methyl)-4-methoxyphenyl)-5-fluoropyrazin-2-yl)-4-methylisoquinolin-1(2H)-one] |
| 0.1 to 10 | CC(c1cc(-c2nc(-c3ccc4c(=O)[nH]cc(F)c4c3)c(N)nc2F)ccc1O)N(C)C (stereo not drawn) [Example I-302, 6-(3-amino-6-(3-(1-(dimethylamino)ethyl)-4-hydroxyphenyl)-5-fluoropyrazin-2-yl)-4-fluoroisoquinolin-1(2H)-one] |
| 0.1 to 10 | CCN(C)Cc1cc(-c2nc(-c3cc4c(cc3F)C(=O)NCC4)c(N)nc2F)cc(C)c1OC [Example I-303, 6-(3-amino-6-(3-((ethyl(methyl)amino)methyl)-4-methoxy-5-methylphenyl)-5-fluoropyrazin-2-yl)-7-fluoro-3,4-dihydroisoquinolin-1(2H)-one] |
| 0.1 to 10 | Cc1c[nH]c(=O)c2ccc(-c3nc(-c4ccc(O)c(C(C)N(C)C)c4)c(F)nc3N)cc12 (stereo not drawn) [Example I-304, 6-(3-amino-6-(3-(1-(dimethylamino)ethyl)-4-hydroxyphenyl)-5-fluoropyrazin-2-yl)-4-methylisoquinolin-1(2H)-one] |
| 0.1 to 10 | CN(C)Cc1cc(-c2nc(-c3ccc4c(=O)[nH]cc(F)c4c3)c(N)nc2F)ccc1O [Example I-305, 6-(3-amino-6-(3-((dimethylamino)methyl)-4-hydroxyphenyl)-5-fluoropyrazin-2-yl)-4-fluoroisoquinolin-1(2H)-one] |

Reference: US20240425479A1, “HALO-SUBSTITUTED AMINO AZA-HETEROARYL COMPOUNDS AS INHIBITORS OF THE HAEMATOPOIETIC PROGENITOR KINASE 1 (HPK1)” (priority 2021, published 2024)
